Several values for one entry are separate records, joined by “and”; a condition that tells them apart may be missing. Equal values may be shown once. Entries after “also recorded” stand apart in the source; their conditions may differ.
System: mouse fibroblast (3T3)
Assay: Stimulating hyaluronic acid production in mouse fibroblast, R&D HA-ELISA (Examples 3 and 5)
Format: cell-based
Details: for Hyaluronic Acid Content Stimulated, Average / Hyaluronic Acid Content Stimulated, single entries: 72 h, vs negative control = 100%, Table 5
Experimental: Complete medium is used in cell seeding stage. The confluent 3T3 cells are rinsed with sterile D-PBS, and trypsinize all cells and perform cell counting. Then, dilute the cell density to 4E+04/mL and seed 0.5 mL cell liquid (equals to 2E+04 cells) each well in 24 well plates. Incubate 3T3 cells at 37° C., 5% CO2 for about 24 hours. Starvation medium is used in this stage. The 24-hour-cultured 3T3 cells are rinsed with sterile D-PBS and discarded rinse buffer. Controls and testing materials in different concentrations are respectively added into the 3T3 cells in 24 well plates. Then, the 3T3 cells are incubated at 37° C., with 5% CO2 for about 72 hours. After incubating for about 72 hours, transfer some supernatant of cells treated with controls and testing materials into new containers. Centrifuge the supernatants at 2000 rpm for 5˜10 minutes. The hyaluronic acid content of the centrifuged supernatants are respectively determined by Hyaluronan Enzyme-Linked Immunosorbent Assay Kit, and calculated with the following Formula 1. [formula] In this example, we try another brand HA-ELISA kit (R&D; Cat No. DHYAL0) to figure out the reproducibility of the stimulatory effect. Excluding replacing the HA-ELISA kit, the materials and the procedures can be referred to the above Example 1. In this example, we try to figure out whether the stimulatory effect also can be found on ascorbic acid. Excluding replacing the HA-ELISA kit to another brand HA-ELISA kit (R&D; Cat No. DHYAL0) and replacing the testing material to ascorbic acid, the other materials and the procedures can be referred to the above Example 1.

O=C1O[C@H]([C@@H](O)CO)C(O)=C1O [Ascorbic Acid, ascorbic acid]
stimulation of hyaluronic acid production (in words) (2-100 ppm, comparing to the negative control): can NOT stimulate hyaluronic acid production; also recorded: cannot be helpful | Hyaluronic Acid Content Stimulated, Average (2 ppm): 94% | Hyaluronic Acid Content Stimulated, single entries (2 ppm): 99% and 64% and 119% | Hyaluronic Acid Content Stimulated, Average (10 ppm): 101% | Hyaluronic Acid Content Stimulated, single entries (10 ppm): 93% and 108% and 101% | Hyaluronic Acid Content Stimulated, Average (50 ppm): 102% | Hyaluronic Acid Content Stimulated, single entries (50 ppm): 105% and 100% and 102% | Hyaluronic Acid Content Stimulated, Average (100 ppm): 91% | Hyaluronic Acid Content Stimulated, single entries (100 ppm): 87% and 93% and 94%

— patent publication US20160326558A1, “Process for Stimulating Hyaluronic Acid Production with Ascorbic Acid Derivatives and the Composition Thereof” (CORUM INC., priority 2012, published 2016)
